The record followed here is the METLIN SMRT retention time set (Domingo-Almenara et al. 2019).

A short description of the series: gradient 5% acetonitrile 3 min, to 50% in 2 min, to 85% in 15 min, held 3 min, 100 µL/min. The conditions noted are these: column: Zorbax Extend-C18 2.1 x 50 mm; eluents: water / acetonitrile, 0.1% formic acid. Put shortly:
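Each retention time is based on an adduct peak selected computationally and verified by manual inspection. Measurements used HPLC–quadrupole time-of-flight mass spectrometry in positive and negative ionization mode on mixtures of ~100 pure standards. Chromatography ran on a Zorbax Extend-C18 column (2.1 × 50 mm, 1.8 μm) at 100 μL/min with water and acetonitrile, each containing 0.1% formic acid, and dead and dwell volumes of 40 μL and 900 μL.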
For `CC(=O)Nc1ccc(S(=O)(=O)N2CCCCC2c2cccnc2)cc1` (stereo not given), the RP-LC retention time amounted to 593 s.

Take `O=C(NC1CCCCC1)C1CCN(c2cn[nH]c(=O)c2)C1` (stereo not given): the RP-LC retention time is 614 s.

`OCc1nc2ccccc2n1C/C=C/c1ccccc1` came in with an RP-LC retention time of 579 s.

With `Cn1cnnc1SCC(=O)N1CCCc2ccccc21`, the RP-LC retention time was 636 s.

In turn, `O=C(Cn1c(=O)oc2ccccc21)N1C[C@H]2C[C@H](C1)[C@H]1CCCC(=O)N1C2` registered an RP-LC retention time of 658 s.

Take `CC(C)n1nc(CNC(=O)c2ccc(F)c(F)c2)c2ccccc21`: the RP-LC retention time was 962 s.

`CC1CCC(NC(=O)c2nnc(-c3ccc(S(=O)(=O)N4CCC(C)CC4)cc3)o2)CC1` (stereo not given) came in with an RP-LC retention time of 1210 s.

Turning to `O=C(NCCN1CCCC1)C1CCCN(c2ncnc3c2nc2n3CCCCC2)C1` (stereo not given), the RP-LC retention time came out at 591 s.

In turn, `Cn1nc(C(=O)Nc2ccccc2)c2c1CCN(C(=O)Nc1ccc(Br)cc1F)C2` showed an RP-LC retention time of 956 s.

For `Nc1nc(-c2ccc(S(=O)(=O)N3CCOCC3)cc2)cs1`, the RP-LC retention time worked out at 620 s.

With `CCn1c(=O)cc(OCC(=O)NCCN(C)Cc2ccccc2)c2ccccc21`, the RP-LC retention time was found to be 617 s.

Consider `O=C(c1cccnc1)N1CCC(n2nc(-c3ccsc3)ccc2=O)CC1`, for which the RP-LC retention time was determined as 650 s.

`CCOC(=O)c1ccc(NC(=O)N(Cc2cccs2)C2CCN(CC)CC2)cc1` showed an RP-LC retention time of 670 s.

`Cc1ccc(-c2nnc(CC(=O)NCCc3cccs3)o2)cc1` had an RP-LC retention time of 771 s.

For `CN(C)S(=O)(=O)c1ccc(-c2nnc(C(=O)NCc3cccc(C(F)(F)F)c3)o2)cc1`, the RP-LC retention time came to 958 s.

The molecule `CCOc1nc2ccccc2nc1N1CCCC(C(=O)NCc2ccccc2Cl)C1` (stereo not given) displayed an RP-LC retention time of 1220 s.

Take `COc1cc(OC)cc(C(=O)N2CCC3(C2)C(=O)N(C)c2ccccc23)c1` (stereo not given): the RP-LC retention time amounted to 770 s.

In the case of `CCCNC(=O)C1CCN(c2ccc(SCC(=O)Nc3ccc(C(=O)OCC)cc3)nn2)CC1`, the RP-LC retention time was found to be 677 s.

Molecule `CCc1ccc(NC(=O)C2CCCN(S(=O)(=O)c3cc(-c4noc(C)n4)cs3)C2)cc1` (stereo not given) yielded an RP-LC retention time of 992 s.

Consider `COc1ccc(CNC(=O)C2(c3ccc(NC(C)=O)cc3)CCCCC2)c(OC)c1`, for which the RP-LC retention time came out at 841 s.

With `Cc1cn(C)c(CC(=O)NCCCN2CCN(C)CC2)c1C(=O)O`, the RP-LC retention time is 561 s.

Take `O=C1NCCCCCCN(Cc2ccc(F)cc2F)[C@H]2CCC[C@@H]12`: the RP-LC retention time worked out at 646 s.

The molecule `CC(=O)N1CCCn2nc(-c3cccc(F)c3)cc2C1` yielded an RP-LC retention time of 722 s.

Molecule `CCc1ccc(-c2csc(Nc3ccccn3)n2)cc1` had an RP-LC retention time of 1040 s.

For the molecule `Cc1cc(COC(=O)c2cc3ccccc3o2)no1`, the RP-LC retention time is 866 s.

In turn, `CN(C)CCCNc1cc(N2CCOCC2)c2noc3c2c1C(=O)c1ccccc1-3` registered an RP-LC retention time of 770 s.

`COc1ccc2[nH]cc(CCN3CC(C(=O)Nc4cc(C)ccc4C)CC3=O)c2c1` (stereo not given) returned an RP-LC retention time of 774 s.

As to `CCOc1ccc(CN(Cc2cc(=O)n3cc(Cl)ccc3n2)CC(C)C)cc1`, the RP-LC retention time is 734 s.

`CCC(C(=O)NCCCN1CCCC1)n1nc(C)c2sc3ccccc3c2c1=O` (stereo not given) showed an RP-LC retention time of 669 s.

The molecule `COCCCNC(=O)CCC[C@@H]1[C@H]2CCCN3CCC[C@@H](CN1C)[C@@H]23` returned an RP-LC retention time of 709 s.

As for `COc1ccccc1CNC(=O)c1sc(-c2cn(C(C)C)c3ncccc23)nc1C`, the RP-LC retention time stood at 1030 s.

As for `O=C(c1cc(F)ccc1F)N1CCc2nc(-c3ccc(Cl)cc3)ncc2C1`, the RP-LC retention time was 1090 s.

`Cc1sc(-c2noc(C3CC3)n2)cc1S(=O)(=O)N1CCC(C(=O)NCc2cccs2)CC1` came in with an RP-LC retention time of 983 s.

Consider `CCN1C(=O)CCc2cc(NS(=O)(=O)c3cccc(Cl)c3)ccc21`, for which the RP-LC retention time amounted to 1000 s.

In turn, `CCCNC(=O)Nc1cccc(-c2noc(-c3ccc4c(c3)OCO4)n2)c1` came in with an RP-LC retention time of 941 s.

On to `CCCN1C(=O)c2c(C(=O)NCc3ccccc3C)ncn2CC1(C)C(=O)NCCC(C)C` (stereo not given), for which the RP-LC retention time was 883 s.

Molecule `CCCCNC(=O)C1CCCN(C(=O)c2[nH]c(C)c(C(=O)OC)c2C)C1` (stereo not given) displayed an RP-LC retention time of 692 s.

The molecule `N#CCSC1=NS(=O)(=O)c2cc(F)ccc2N1` had an RP-LC retention time of 622 s.

In the case of `COc1ccc(S(=O)(=O)Cc2nc(-c3ccccc3Br)no2)cc1`, the RP-LC retention time came to 905 s.

With `COc1ccc(-c2nc3ncccn3c2Nc2ccccc2C)cc1`, the RP-LC retention time was found to be 705 s.

Consider `CCc1nc(-c2cccc(NC(=O)c3cncc(Br)c3)c2)no1`, for which the RP-LC retention time is 926 s.

In the case of `Cc1ccc(NC(=O)C2CCCN(c3ccc4cc(S(=O)(=O)N5CCCCC5)ccc4n3)C2)cc1` (stereo not given), the RP-LC retention time was 917 s.

On to `Cc1nc(Cn2cccc2C(=O)NCc2ccc(Br)cc2)no1`, for which the RP-LC retention time is 942 s.

Regarding `Cc1oc(-c2ccc(Cl)cc2)nc1CN1CCCC(C(=O)NC2CCCCC2C)C1` (stereo not given), the RP-LC retention time stood at 835 s.

`CCCCNC(=O)CCC1CCN(c2cc(NCCC)ncn2)CC1`: the RP-LC retention time was 658 s.

In turn, `Cc1ccc(-c2noc(Cn3ccnc3C)n2)cc1C` came in with an RP-LC retention time of 670 s.

`Cc1ccccc1-c1noc(CN2N=NC3C(=O)N(c4ccc(F)c(F)c4)C(=O)C32)n1` (stereo not given) registered an RP-LC retention time of 804 s.

`Cc1ccc(NS(=O)(=O)c2cc(-c3nc(C(C)C)cs3)cs2)cc1C` displayed an RP-LC retention time of 1260 s.

As to `COC(=O)c1sccc1NC(=O)NCC(c1ccc(OC)c(OC)c1)c1c[nH]c2ccccc12` (stereo not given), the RP-LC retention time turned out to be 978 s.

Take `COc1ccccc1CNC(=O)C1c2ccccc2C(=O)N2CCc3cc(OC)c(OC)cc3C12` (stereo not given): the RP-LC retention time turned out to be 735 s.

Molecule `CN1CCCn2nc(C3CCN(C(=O)NCCc4ccccc4)CC3)cc2C1=O` had an RP-LC retention time of 657 s.

Take `CCCOc1ccc(CN2C[C@@H](CO)[C@H](c3ccccn3)C2)cc1`: the RP-LC retention time is 578 s.

On to `CCn1cnc(S(=O)(=O)N2CCC(C(=O)N3CCN(c4cccc(Cl)c4)CC3)CC2)c1`, for which the RP-LC retention time turned out to be 825 s.

Turning to `CCNC(=O)CCc1nc2ccccc2n(CC(=O)Nc2cc(OC)cc(OC)c2)c1=O`, the RP-LC retention time is 737 s.

`CSc1cccc(NC(=O)Cn2ncc3c(c2=O)N(CC2CC2)C(=O)CS3)c1` gave an RP-LC retention time of 1190 s.

`COc1ccc(-n2c(=O)c(C(=O)NC(C)c3ccccc3)c(O)c3cccnc32)cc1` (stereo not given) had an RP-LC retention time of 1180 s.

`Cc1ccc2c(c1)N(S(C)(=O)=O)CCC(C(=O)Nc1cccc(C)c1C)O2` (stereo not given) came in with an RP-LC retention time of 945 s.

The molecule `O=C(c1sc2ncccc2c1-n1cccc1)N1CCSCC1` yielded an RP-LC retention time of 842 s.

`CCCN1CCN(CCNC(=O)CCc2cc3ccc(C)cc3[nH]c2=O)CC1` showed an RP-LC retention time of 571 s.

In the case of `Cc1c(C(=O)NCCCn2ncccc2=O)nnn1-c1nccs1`, the RP-LC retention time was 630 s.
